Source: ChEMBL document CHEMBL1201862, “PubChem BioAssay data set” (2004)
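Briefly, cells in 96-well plates were exposed to five compound concentrations for 48 h, and endpoints were estimated by linear interpolation. GI50: concentration for 50% inhibition of growth.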 Activity calls are given as the source filed them. Rule as the data show it: active = GI50 up to about 1.1 µM and inactive = higher.

Key:
Test in all cases: DTP human tumour cell line panel, 48 h
Hs-578T = test system: Hs-578T
CAKI-1 = test system: CAKI-1
OVCAR-5 = test system: OVCAR-5
SF-295 = test system: SF-295
SK-MEL-5 = test system: SK-MEL-5
OVCAR-8 = test system: OVCAR-8
PC-3 = test system: PC-3
LOX IMVI = test system: LOX IMVI
MDA-MB-435 = test system: MDA-MB-435
U-251 = test system: U-251
NCI/ADR-RES = test system: NCI/ADR-RES
DU-145 = test system: DU-145
MDA-MB-231 = test system: MDA-MB-231
MDA-N = test system: MDA-N
CCRF-CEM = test system: CCRF-CEM
A498 = test system: A498

CN(CCNC(=O)c1c[nH]c2c1Cc1ccccc1-2)CCNC(=O)c1c[nH]c2c1Cc1ccccc1-2
GI50 (Hs-578T): 35.3 µM (inactive)
GI50 (CAKI-1): 48.6 µM (inactive)
GI50 (OVCAR-5): > 100 µM (inactive)
GI50 (SF-295): 26.9 µM (inactive)
GI50 (SK-MEL-5): 21.8 µM (inactive)
GI50 (OVCAR-8): 32.1 µM (inactive)
GI50 (PC-3): 18.2 µM (inactive)
GI50 (LOX IMVI): 29.9 µM (inactive)
GI50 (MDA-MB-435): 17.1 µM (inactive)
GI50 (U-251): 18.5 µM (inactive)
GI50 (NCI/ADR-RES): 29.4 µM (inactive)
GI50 (DU-145): 60.1 µM (inactive)
GI50 (MDA-MB-231): 28.6 µM (inactive)
GI50 (MDA-N): 15.2 µM (inactive)

NCCN/C(=N\c1ccccc1)Nc1ccccc1
GI50 (Hs-578T): > 100 µM (inactive)
GI50 (CAKI-1): > 100 µM (inactive)
GI50 (SF-295): > 100 µM (inactive)
GI50 (SK-MEL-5): 99.5 µM (inactive)
GI50 (OVCAR-8): > 100 µM (inactive)
GI50 (CCRF-CEM): > 100 µM (inactive)
GI50 (PC-3): 55.6 µM (inactive)
GI50 (LOX IMVI): 83.8 µM (inactive)
GI50 (MDA-MB-435): > 100 µM (inactive)
GI50 (U-251): > 100 µM (inactive)
GI50 (NCI/ADR-RES): > 100 µM (inactive)
GI50 (DU-145): > 100 µM (inactive)
GI50 (MDA-MB-231): > 100 µM (inactive)
GI50 (MDA-N): > 100 µM (inactive)

Cn1c2ccccc2n2c(=O)c3cc([N+](=O)[O-])ccc3c(C#N)c12
GI50 (Hs-578T): > 100 µM (inactive)
GI50 (CAKI-1): > 10 µM (inactive)
GI50 (OVCAR-5): > 100 µM (inactive)
GI50 (SF-295): 83.2 µM (inactive)
GI50 (SK-MEL-5): > 100 µM (inactive)
GI50 (OVCAR-8): > 100 µM (inactive)
GI50 (CCRF-CEM): > 100 µM (inactive)
GI50 (PC-3): > 100 µM (inactive)
GI50 (LOX IMVI): > 100 µM (inactive)
GI50 (MDA-MB-435): > 100 µM (inactive)
GI50 (U-251): > 100 µM (inactive)
GI50 (NCI/ADR-RES): > 100 µM (inactive)
GI50 (DU-145): > 100 µM (inactive)
GI50 (MDA-N): > 100 µM (inactive)

CCC1CN(C(=O)c2ccccc2)C(Cc2c[nH]c3ccccc23)C(=O)C1CC(=O)OC (stereo not given)
GI50 (Hs-578T): 51.8 µM (inactive)
GI50 (CAKI-1): 54.7 µM (inactive)
GI50 (OVCAR-5): > 100 µM (inactive)
GI50 (SF-295): > 100 µM (inactive)
GI50 (SK-MEL-5): 72.8 µM (inactive)
GI50 (OVCAR-8): 79.6 µM (inactive)
GI50 (CCRF-CEM): 51.4 µM (inactive)
GI50 (PC-3): 46 µM (inactive)
GI50 (LOX IMVI): 90.6 µM (inactive)
GI50 (MDA-MB-435): > 100 µM (inactive)
GI50 (U-251): 41.6 µM (inactive)
GI50 (NCI/ADR-RES): 86.7 µM (inactive)
GI50 (DU-145): > 100 µM (inactive)
GI50 (A498): 1.09 µM (active)

Cc1ccc(S(=O)(=O)N(CCN)c2cc3c4c(c2)Oc2cccc5c2C4c2c(cccc2O3)O5)cc1
GI50 (Hs-578T): 17 µM (inactive)
GI50 (OVCAR-5): 21.2 µM (inactive)
GI50 (SF-295): 21.9 µM (inactive)
GI50 (SK-MEL-5): 19.9 µM (inactive)
GI50 (OVCAR-8): 11.1 µM (inactive)
GI50 (CCRF-CEM): 22.7 µM (inactive)
GI50 (PC-3): 18.7 µM (inactive)
GI50 (LOX IMVI): 23.2 µM (inactive)
GI50 (MDA-MB-435): 20.7 µM (inactive)
GI50 (U-251): 19.6 µM (inactive)
GI50 (NCI/ADR-RES): 10.7 µM (inactive)
GI50 (MDA-MB-231): 17.9 µM (inactive)
GI50 (A498): 55.3 µM (inactive)
GI50 (MDA-N): 23.8 µM (inactive)

CC(=O)C(=C(I)I)c1ccccc1
GI50 (CAKI-1): 1.84 µM (inactive)
GI50 (OVCAR-5): 23.3 µM (inactive)
GI50 (SF-295): 25.9 µM (inactive)
GI50 (SK-MEL-5): 15.1 µM (inactive)
GI50 (OVCAR-8): 18.3 µM (inactive)
GI50 (CCRF-CEM): 11.5 µM (inactive)
GI50 (PC-3): 31.5 µM (inactive)
GI50 (LOX IMVI): 18.1 µM (inactive)
GI50 (MDA-MB-435): 14.6 µM (inactive)
GI50 (U-251): 17.5 µM (inactive)
GI50 (NCI/ADR-RES): 21.1 µM (inactive)
GI50 (DU-145): 29.7 µM (inactive)
GI50 (MDA-MB-231): 22.3 µM (inactive)
GI50 (A498): 22 µM (inactive)
GI50 (MDA-N): 15.2 µM (inactive)

COc1ccc2c(c1)C(=O)CC1c3cnccc3C(=O)N21 (stereo not given)
GI50 (CAKI-1): > 100 µM (inactive)
GI50 (OVCAR-5): > 100 µM (inactive)
GI50 (SF-295): > 100 µM (inactive)
GI50 (SK-MEL-5): > 100 µM (inactive)
GI50 (OVCAR-8): > 100 µM (inactive)
GI50 (PC-3): > 100 µM (inactive)
GI50 (LOX IMVI): > 100 µM (inactive)
GI50 (MDA-MB-435): > 31.6 µM (inactive)
GI50 (U-251): > 73.5 µM (inactive)
GI50 (NCI/ADR-RES): > 100 µM (inactive)
GI50 (DU-145): > 100 µM (inactive)
GI50 (MDA-MB-231): > 100 µM (inactive)
GI50 (A498): > 100 µM (inactive)
GI50 (MDA-N): > 100 µM (inactive)

COc1cc2c3c(cc(Cl)nc3c1OC)C(=O)C(=O)N2
GI50 (Hs-578T): 30.4 µM (inactive)
GI50 (CAKI-1): 15.1 µM (inactive)
GI50 (OVCAR-5): 18 µM (inactive)
GI50 (SF-295): 18.6 µM (inactive)
GI50 (SK-MEL-5): 16.4 µM (inactive)
GI50 (OVCAR-8): 18.2 µM (inactive)
GI50 (CCRF-CEM): 1.69 µM (inactive)
GI50 (PC-3): 14.5 µM (inactive)
GI50 (LOX IMVI): 9.44 µM (inactive)
GI50 (MDA-MB-435): 1.79 µM (inactive)
GI50 (U-251): 16.5 µM (inactive)
GI50 (NCI/ADR-RES): 22.5 µM (inactive)
GI50 (DU-145): 17 µM (inactive)
GI50 (MDA-MB-231): 1.94 µM (inactive)
GI50 (A498): 16.6 µM (inactive)

Oc1ccccc1/C=N/c1ccc(-c2nc3ccccc3s2)cc1
GI50 (Hs-578T): 30.7 µM (inactive)
GI50 (CAKI-1): 28.2 µM (inactive)
GI50 (OVCAR-5): 28.3 µM (inactive)
GI50 (SF-295): 24.1 µM (inactive)
GI50 (SK-MEL-5): 15.1 µM (inactive)
GI50 (OVCAR-8): 28.6 µM (inactive)
GI50 (CCRF-CEM): 6.89 µM (inactive)
GI50 (PC-3): 18.7 µM (inactive)
GI50 (LOX IMVI): 26.4 µM (inactive)
GI50 (MDA-MB-435): 26.6 µM (inactive)
GI50 (U-251): 30.9 µM (inactive)
GI50 (NCI/ADR-RES): 25.6 µM (inactive)
GI50 (DU-145): 45.7 µM (inactive)
GI50 (A498): 21.4 µM (inactive)
GI50 (MDA-N): 29.6 µM (inactive)

CC1CCCCNC1=S (stereo not given)
GI50 (Hs-578T): > 10 µM (inactive)
GI50 (OVCAR-5): > 10 µM (inactive)
GI50 (SF-295): > 10 µM (inactive)
GI50 (SK-MEL-5): > 10 µM (inactive)
GI50 (OVCAR-8): > 10 µM (inactive)
GI50 (CCRF-CEM): > 10 µM (inactive)
GI50 (PC-3): > 10 µM (inactive)
GI50 (LOX IMVI): > 10 µM (inactive)
GI50 (MDA-MB-435): > 10 µM (inactive)
GI50 (U-251): > 10 µM (inactive)
GI50 (DU-145): > 10 µM (inactive)
GI50 (MDA-MB-231): > 10 µM (inactive)
GI50 (A498): > 10 µM (inactive)
GI50 (MDA-N): > 10 µM (inactive)

Cc1nn(C(=O)Cc2ccccc2)c2c1C(c1ccc3ccccc3c1O)SC(=N)N2 (stereo not given)
GI50 (Hs-578T): > 100 µM (inactive)
GI50 (CAKI-1): > 100 µM (inactive)
GI50 (SF-295): > 100 µM (inactive)
GI50 (SK-MEL-5): > 100 µM (inactive)
GI50 (OVCAR-8): > 100 µM (inactive)
GI50 (CCRF-CEM): 22.1 µM (inactive)
GI50 (PC-3): > 100 µM (inactive)
GI50 (LOX IMVI): > 100 µM (inactive)
GI50 (MDA-MB-435): > 100 µM (inactive)
GI50 (DU-145): > 100 µM (inactive)
GI50 (MDA-MB-231): > 100 µM (inactive)
GI50 (A498): > 100 µM (inactive)
GI50 (MDA-N): > 100 µM (inactive)

Cc1nc2nnc(CCCCCCCCc3nnc4nc(C)[nH]n34)n2[nH]1
GI50 (CAKI-1): > 100 µM (inactive)
GI50 (OVCAR-5): > 100 µM (inactive)
GI50 (SF-295): > 100 µM (inactive)
GI50 (SK-MEL-5): > 100 µM (inactive)
GI50 (OVCAR-8): > 100 µM (inactive)
GI50 (CCRF-CEM): > 100 µM (inactive)
GI50 (PC-3): > 100 µM (inactive)
GI50 (LOX IMVI): 47.4 µM (inactive)
GI50 (MDA-MB-435): > 100 µM (inactive)
GI50 (U-251): > 100 µM (inactive)
GI50 (NCI/ADR-RES): > 100 µM (inactive)
GI50 (DU-145): > 100 µM (inactive)
GI50 (MDA-MB-231): > 100 µM (inactive)
GI50 (A498): > 100 µM (inactive)
GI50 (MDA-N): > 100 µM (inactive)

O=P(O)(Cc1ccccc1)c1ccccc1-c1ccccc1
GI50 (Hs-578T): > 100 µM (inactive)
GI50 (CAKI-1): > 100 µM (inactive)
GI50 (OVCAR-5): > 100 µM (inactive)
GI50 (SF-295): > 100 µM (inactive)
GI50 (SK-MEL-5): > 100 µM (inactive)
GI50 (OVCAR-8): > 100 µM (inactive)
GI50 (CCRF-CEM): > 100 µM (inactive)
GI50 (PC-3): > 100 µM (inactive)
GI50 (LOX IMVI): > 100 µM (inactive)
GI50 (U-251): 57.1 µM (inactive)
GI50 (NCI/ADR-RES): > 100 µM (inactive)
GI50 (DU-145): > 100 µM (inactive)
GI50 (MDA-MB-231): > 100 µM (inactive)
GI50 (MDA-N): > 100 µM (inactive)

CN1CCOC1(C)CO (stereo not given)
GI50 (Hs-578T): > 100 µM (inactive)
GI50 (CAKI-1): > 100 µM (inactive)
GI50 (OVCAR-5): > 100 µM (inactive)
GI50 (SF-295): > 100 µM (inactive)
GI50 (SK-MEL-5): > 100 µM (inactive)
GI50 (OVCAR-8): > 100 µM (inactive)
GI50 (CCRF-CEM): > 100 µM (inactive)
GI50 (PC-3): > 100 µM (inactive)
GI50 (LOX IMVI): > 100 µM (inactive)
GI50 (MDA-MB-435): > 100 µM (inactive)
GI50 (U-251): > 100 µM (inactive)
GI50 (NCI/ADR-RES): > 100 µM (inactive)
GI50 (MDA-MB-231): > 100 µM (inactive)
GI50 (A498): > 100 µM (inactive)
GI50 (MDA-N): > 100 µM (inactive)
